Measurements published in patent US20230364084A1, “METHODS FOR PREVENTING OR TREATING CONDITIONS RELATED TO PIKFYVE ACTIVITY” (The Regents of the University of Michigan, priority 2020, published 2023).

Key:
[1] = molecular target: PIKfyve (Homo sapiens, UniProt Q9Y2I7); test: lipid kinase competition assay (scanLIPID panel, 22 lipid kinases); type: binding; parameters: purchased DiscoveRX (KINOMEscan scanLIPID panel; KdELECT); settings: 1 μM ESK981, only target among 22 phosphoinositide kinases
Sequence of PIKfyve (Q9Y2I7 whole entry): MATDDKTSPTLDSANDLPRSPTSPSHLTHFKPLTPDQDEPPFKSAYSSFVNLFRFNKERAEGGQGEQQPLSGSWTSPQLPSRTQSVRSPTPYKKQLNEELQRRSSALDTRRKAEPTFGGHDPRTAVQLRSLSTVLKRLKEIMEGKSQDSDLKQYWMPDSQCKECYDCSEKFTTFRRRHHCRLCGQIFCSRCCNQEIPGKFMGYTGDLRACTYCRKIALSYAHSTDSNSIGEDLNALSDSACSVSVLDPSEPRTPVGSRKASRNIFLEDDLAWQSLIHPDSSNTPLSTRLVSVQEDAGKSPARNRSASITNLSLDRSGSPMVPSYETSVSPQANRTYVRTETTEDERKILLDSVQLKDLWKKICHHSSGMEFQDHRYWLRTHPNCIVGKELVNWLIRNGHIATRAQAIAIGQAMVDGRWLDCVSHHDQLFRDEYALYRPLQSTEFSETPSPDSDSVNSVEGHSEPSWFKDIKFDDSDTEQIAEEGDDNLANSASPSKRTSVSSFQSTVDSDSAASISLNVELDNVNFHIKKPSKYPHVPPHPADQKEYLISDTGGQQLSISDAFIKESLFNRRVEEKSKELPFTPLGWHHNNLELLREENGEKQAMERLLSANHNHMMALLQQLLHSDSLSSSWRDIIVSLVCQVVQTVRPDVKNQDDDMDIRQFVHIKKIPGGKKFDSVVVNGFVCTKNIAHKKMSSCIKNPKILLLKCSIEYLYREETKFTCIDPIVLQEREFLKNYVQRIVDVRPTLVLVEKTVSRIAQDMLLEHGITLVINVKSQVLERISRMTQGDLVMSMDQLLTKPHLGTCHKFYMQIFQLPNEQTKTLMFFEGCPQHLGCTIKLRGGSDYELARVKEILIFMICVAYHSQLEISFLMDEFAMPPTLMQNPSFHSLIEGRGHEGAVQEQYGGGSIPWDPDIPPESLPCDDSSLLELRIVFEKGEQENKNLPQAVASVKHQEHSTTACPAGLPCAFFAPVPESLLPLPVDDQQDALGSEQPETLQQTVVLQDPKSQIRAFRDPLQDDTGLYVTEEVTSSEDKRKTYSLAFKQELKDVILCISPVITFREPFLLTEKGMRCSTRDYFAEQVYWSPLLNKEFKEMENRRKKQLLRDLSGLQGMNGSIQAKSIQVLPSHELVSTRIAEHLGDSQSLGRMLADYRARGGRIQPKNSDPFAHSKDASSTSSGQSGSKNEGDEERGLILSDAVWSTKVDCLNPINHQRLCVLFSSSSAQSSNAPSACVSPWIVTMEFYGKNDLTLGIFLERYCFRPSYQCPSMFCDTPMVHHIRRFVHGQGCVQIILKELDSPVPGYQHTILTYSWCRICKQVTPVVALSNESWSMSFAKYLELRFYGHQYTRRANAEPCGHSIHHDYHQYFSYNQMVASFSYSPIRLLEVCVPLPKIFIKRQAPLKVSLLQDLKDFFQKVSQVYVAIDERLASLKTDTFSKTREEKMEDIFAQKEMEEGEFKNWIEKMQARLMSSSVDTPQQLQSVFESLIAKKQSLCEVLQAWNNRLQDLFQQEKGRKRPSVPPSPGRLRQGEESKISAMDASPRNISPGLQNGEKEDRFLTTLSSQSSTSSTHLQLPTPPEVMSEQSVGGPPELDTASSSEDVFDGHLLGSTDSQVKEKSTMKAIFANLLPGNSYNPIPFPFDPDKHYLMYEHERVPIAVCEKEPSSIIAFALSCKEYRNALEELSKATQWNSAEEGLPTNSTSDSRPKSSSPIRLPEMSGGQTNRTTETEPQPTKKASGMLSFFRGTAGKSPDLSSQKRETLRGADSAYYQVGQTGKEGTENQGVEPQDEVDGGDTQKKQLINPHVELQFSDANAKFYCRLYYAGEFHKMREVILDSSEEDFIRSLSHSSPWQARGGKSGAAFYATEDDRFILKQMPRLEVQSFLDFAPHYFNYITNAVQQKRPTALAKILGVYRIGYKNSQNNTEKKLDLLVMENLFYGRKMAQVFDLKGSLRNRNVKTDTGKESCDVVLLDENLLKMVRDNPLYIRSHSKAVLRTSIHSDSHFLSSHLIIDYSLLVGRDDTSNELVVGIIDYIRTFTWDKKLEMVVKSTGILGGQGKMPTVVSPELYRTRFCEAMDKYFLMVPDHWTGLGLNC
Protocol: Lipid kinase competition assays for 22 lipid kinases, including clinically-relevant mutants, were performed using DiscoveRX KINOEscan® platform scanLIPID® panel. Detailed information is described on the DiscoveRX website (https://www.discoverx.com/technologies-platforms/competitive-binding-technology/kinomescan-technology-platform).

[2] = system: DU145 prostate cancer cells; test: cell viability screen with a 167-compound tyrosine kinase inhibitor library; type: cell-based, human
Protocol: FIG. 1: ESK981 inhibits the growth of diverse preclinical models of prostate cancer and is associated with a unique vacuolization morphology. • (a) The percentage viabilities of DU145 cells treated with 300 nM ESK981 or 167 other tyrosine kinase inhibitors when compared to a vehicle control. The top five most inhibitory compounds, as well as cabozantinib and crizotinib (highlighted in orange), and their respective targets are listed in the table. ESK981 is highlighted in red. • (b) Morphological differences of nuclear-restricted RFP-expressing DU145 cells treated with 300 nM ESK981, crizotinib, or cabozantinib. • (c) A long-term survival assay was used to calculate the half-maximum inhibitory concentration (IC50) after two weeks of incubation with the serial dilutions of indicated drugs. (Top) Long-term survival assays of VCaP prostate cancer cells exposed to MTKIs. (Bottom) IC50 of ESK981, crizotinib, and cabozantinib in a panel of prostate cancer cell lines. • (d) ESK981 was effective against enzalutamide (Enza)-resistant cell lines. […] Long-term survival (two weeks) was assayed by absorbance of crystal violet at OD590. • (e) VCaP-RFP cells were cultured for three days in ultralow attachment plates to form 3D tumor spheroids prior to the indicated drug treatments. […] Fluorescence intensity of 3D spheroids was measured by IncuCyte ZOOM. • (f) Castration-resistant VCaP tumors were established subcutaneously in castrated SCID mice, and mice were randomized into three groups, which received vehicle, 30 mg/kg, or 60 mg/kg ESK981 by oral gavage once per day for the indicated dosing schedule. Tumor volumes were monitored by a digital caliper twice per week. Data were analyzed by unpaired t test and presented as mean±SEM. *p<0.05; **p<0.01. • (g) AR^+ prostate patient-derived xenograft (PDX) MDA-PCa-146-12 were implanted subcutaneously in non-castrated SCID mice, and mice were randomized into two groups receiving either once daily vehicle or 30 mg/kg ESK981 for five days each week. […] Tumor volumes were monitored twice per week. […]

`CC(C)Cn1c2ccc(Nc3ncccn3)cc2c2c3c(c4c(c21)CCc1nn(C)cc1-4)C(=O)NC3` [ESK981, 13-isobutyl-4-methyl-10-(pyrimidin-2-ylamino)-1,2,4,7,8,13-hexahydro-6H-indazolo[5,4-a]pyrrolo[3,4-c]carbazol-6-one] was tested, and the “competition in affinity binding screen” value [1] was “completely competed away”, the “growth inhibition (cell viability)” value ([2]; 300 nM) was “potent growth inhibition” and the cytoplasmic vacuolization morphology ([2]; among the 167 compounds tested) was “uniquely triggered a cytoplasmic vacuolization morphology”.
